The subject of this assay is Plasmodium berghei. Put plainly: Luciferase/luciferin-expressing antifolate-resistant parasites were used to infect a culture of HepG2 cells that were pre-incubated with compounds. Infected hepatocytes emit light due to the luciferase reaction. Assay results are presented as the percent inhibition of light emission compared to control. […]. Particulars: sporozoite; for IC90: read-out: LUCIFERASE INFECTION ASSAY - IC90. It counts as functional.

[1] abbreviates: read-out: LUCIFERASE INFECTION ASSAY - IC50.

pIC50: −log10 of the molar value.

In general, pIC50 refers to the negative decadic logarithm of the IC50, by convention in mol/L. A word on the IC90: it is the concentration needed for an effect of 90%. On to `CC(C)NC(=O)c1c(NC(=O)c2cccc(C(F)(F)F)c2)nc2ccccn12`, for which the concentration for an effect of 90% (IC90) stood at 0.971 µM. The pIC50 (FFLUC_HILL_SLOPE 39.4, FFLUC_R_SQUARED 0.293, HEPG2TOX_HILL_SLOPE 0.926, HEPG2TOX_R_SQUARED 0.794, PBLUC_HILL_SLOPE 4.31, PBLUC_R_SQUARED 0.785, read-out: LUCIFERASE INFECTION ASSAY - IC50) is 6.23.
With `CC1=C(C(=O)OC(C)C)C(c2ccccc2)n2nc(-c3cccs3)nc2N1` (stereo unspecified), the IC90 is greater than 10 µM. Further, the pIC50 (HEPG2TOX_HILL_SLOPE 6.88, HEPG2TOX_R_SQUARED 0.357, read-out: LUCIFERASE INFECTION ASSAY - IC50) is less than 5.00.
With `FC(F)(F)Oc1ccc(-c2ccc(OCCCc3ccccn3)nc2)cc1`, the IC90 is greater than 8.82 µM. Moreover, where the note is “HEPG2TOX_HILL_SLOPE 2.06, HEPG2TOX_R_SQUARED 0.963, PBLUC_HILL_SLOPE 4.51, PBLUC_R_SQUARED 0.157, read-out: LUCIFERASE INFECTION ASSAY - IC50”, the pIC50 was 5.17.
For the compound `Nc1nc(Sc2ncnc3ccsc23)nc2sccc12`, the IC90 is greater than 10 µM. Also, the pIC50 under setting [1] is 5.01.
Turning to `N#Cc1ccc(CN2CCN(CC(=O)Nc3nc(-c4c[nH]c5ccccc45)cs3)CC2)cc1`, the IC90 came out at 3.45 µM. For the setting “HEPG2TOX_HILL_SLOPE 1.59, HEPG2TOX_R_SQUARED 0.927, PBLUC_HILL_SLOPE 64.1, PBLUC_R_SQUARED 0.488, read-out: LUCIFERASE INFECTION ASSAY - IC50”, the pIC50 was 5.48.
`CCn1c2ccc(Cl)cc2c2cc(Cl)ccc21`: the IC90 is greater than 12.5 µM. For the same compound, the pIC50 under setting [1] is less than 4.90.
`CCOC(=O)c1sc(N)c(C#N)c1CSc1nnc(-c2ccncc2)n1-c1ccc(CC)cc1`: the IC90 was greater than 10 µM. Also, the pIC50 under setting [1] was less than 5.00.
In the case of `O=C(NNC(=O)c1sccc1OCc1ncc(C(F)(F)F)cc1Cl)c1ccccc1`, the 90% effect concentration (IC90) was greater than 7.24 µM. The pIC50 (PBLUC_HILL_SLOPE 1.3, PBLUC_R_SQUARED 0.614, read-out: LUCIFERASE INFECTION ASSAY - IC50) was 5.38.
On to `Cc1nn(-c2ccc(C(=O)N(Cc3ccccc3)Cc3nc(=O)c4ccccc4[nH]3)cc2)c(C)c1Cl`, for which the IC90 turned out to be 3.52 µM. Further, the pIC50 (PBLUC_HILL_SLOPE 3.8, PBLUC_R_SQUARED 0.516, read-out: LUCIFERASE INFECTION ASSAY - IC50) was 5.70.
As for `CC(=O)c1cnc2sc(C(=O)OC3CCCCC3)c(C)c2c1`, the IC90 stood at 3.88 µM. For the setting “PBLUC_HILL_SLOPE 13.1, PBLUC_R_SQUARED 0.209, read-out: LUCIFERASE INFECTION ASSAY - IC50”, the pIC50 is 5.48.
Turning to `CCNC(=O)c1cc2c(s1)CCC(C(C)(C)C)C2` (stereo unspecified), the IC90 was greater than 10 µM. The pIC50 (PBLUC_HILL_SLOPE 3.05, PBLUC_R_SQUARED 0.267, read-out: LUCIFERASE INFECTION ASSAY - IC50) is 5.17.
For the compound `CN(CCOc1ccc(Br)cc1)CC(O)COc1ccc(C#N)cc1` (stereo unspecified), the concentration for an effect of 90% (IC90) was greater than 10 µM. Under setting [1], the pIC50 was 5.06.
For the compound `Cn1cc(-c2cc(-c3cccc4ccccc34)cnc2N)cn1`, the IC90 was greater than 11 µM. Where the note is “PBLUC_HILL_SLOPE 11.1, PBLUC_R_SQUARED 0.24, read-out: LUCIFERASE INFECTION ASSAY - IC50”, the pIC50 is 4.98.
For `CCCc1ccc(-c2nc(NC(=O)CCc3ccsc3)sc2C)cc1`, the concentration for an effect of 90% (IC90) was greater than 10 µM. Besides, under setting [1], the negative-log IC50 (pIC50) is less than 5.00.
In the case of `C[C@]12CC[C@H](O)C[C@H]1CC[C@@H]1C2CC[C@]2(C)[C@@H](C3=CC(=O)OC3)[C@@H](O)C[C@]12O` (stereo partly specified), the IC90 was 8.37 µM. For the same compound, the pIC50 (HEPG2TOX_HILL_SLOPE 3.04, HEPG2TOX_R_SQUARED 0.92, PBLUC_HILL_SLOPE 1.95, PBLUC_R_SQUARED 0.451, read-out: LUCIFERASE INFECTION ASSAY - IC50) is 5.57.
For the compound `Oc1cccc(-c2cnc3cnc(-c4ccccc4Cl)cn23)c1`, the concentration for an effect of 90% (IC90) is greater than 10.3 µM. Also, the pIC50 (HEPG2TOX_HILL_SLOPE 2.92, HEPG2TOX_R_SQUARED 0.924, PBLUC_HILL_SLOPE 1.11, PBLUC_R_SQUARED 0.809, read-out: LUCIFERASE INFECTION ASSAY - IC50) was 5.76.
`Cc1cc(-c2ccccc2)[n+]2nc(N)c3ccccc3c2n1`: the 90% effect concentration (IC90) is greater than 10 µM. Further, the pIC50 (HEPG2TOX_HILL_SLOPE 2.74, HEPG2TOX_R_SQUARED 0.909, PBLUC_HILL_SLOPE 12.1, PBLUC_R_SQUARED 0.242, read-out: LUCIFERASE INFECTION ASSAY - IC50) is 5.04.
Take `O=c1c(Br)c(Br)cnn1-c1ccccc1`: the IC90 was greater than 10 µM. Further, the pIC50 (HEPG2TOX_HILL_SLOPE 14.1, HEPG2TOX_R_SQUARED 0.656, PBLUC_HILL_SLOPE 2.79, PBLUC_R_SQUARED 0.266, read-out: LUCIFERASE INFECTION ASSAY - IC50) is 5.21.
With `Cc1c(S(=O)(=O)c2ccc(Cl)cc2)csc1C(=O)Nc1cc(C(F)(F)F)cc(C(F)(F)F)c1`, the IC90 is greater than 6.25 µM. For the same compound, the pIC50 (FFLUC_HILL_SLOPE 11.9, FFLUC_R_SQUARED 0.653, HEPG2TOX_HILL_SLOPE 12.6, HEPG2TOX_R_SQUARED 0.751, PBLUC_HILL_SLOPE 2.69, PBLUC_R_SQUARED 0.583, read-out: LUCIFERASE INFECTION ASSAY - IC50) is 5.49.
On to `O=C(Nc1ccc(-c2nc3ccccc3[nH]2)cc1)C1CCC1`, for which the IC90 is greater than 10 µM. In addition, for the setting “FFLUC_HILL_SLOPE 0.826, FFLUC_R_SQUARED 0.895, PBLUC_HILL_SLOPE 0.293, PBLUC_R_SQUARED 0.545, read-out: LUCIFERASE INFECTION ASSAY - IC50”, the pIC50 was 6.27.
Consider `CCCCCCOCC[N+](C)(CCOCCCCCC)CCOCCCCCC`, for which the IC90 was determined as 1.08 µM. The pIC50 (FFLUC_HILL_SLOPE 13.1, FFLUC_R_SQUARED 0.46, HEPG2TOX_HILL_SLOPE 1.63, HEPG2TOX_R_SQUARED 0.995, PBLUC_HILL_SLOPE 15.2, PBLUC_R_SQUARED 0.558, read-out: LUCIFERASE INFECTION ASSAY - IC50) is 6.03.
Regarding `Nc1ncc(-c2cc(C(F)(F)F)cc(C(F)(F)F)c2)cc1-c1ccc(O)cc1`, the IC90 is greater than 8.29 µM. Moreover, the pIC50 under setting [1] is less than 5.08.
In the case of `OC(CNC1CCN(Cc2ccccc2)CC1)COc1ccc(OC(F)(F)F)cc1` (stereo unspecified), the IC90 was greater than 7.77 µM. For the same compound, the negative-log IC50 (pIC50) (PBLUC_HILL_SLOPE 0.955, PBLUC_R_SQUARED 0.217, read-out: LUCIFERASE INFECTION ASSAY - IC50) was less than 5.11.
For the compound `CC(=O)c1c[nH]c(C(=O)Nc2nc(C)c(-c3ccccn3)s2)c1`, the IC90 was greater than 10 µM. For the same compound, the pIC50 under setting [1] is less than 5.00.
The like results for `N#CCC(=O)NN1Cc2ccccc2C1=N` were, in that order, greater than 10 µM and less than 5.00.
In the case of `COc1ccc(NC(C)=O)cc1Nc1nc(C(F)(F)F)nc2ccccc12`, the IC90 was greater than 10 µM. In addition, the pIC50 (HEPG2TOX_HILL_SLOPE 9.23, HEPG2TOX_R_SQUARED 0.863, PBLUC_HILL_SLOPE 3.13, PBLUC_R_SQUARED 0.379, read-out: LUCIFERASE INFECTION ASSAY - IC50) is 5.21.
Turning to `O=C(Nc1ccc(-n2cnc3ccccc32)nc1)c1ccc(S(=O)(=O)C(F)F)cc1`, the 90% effect concentration (IC90) is greater than 10 µM. Where the note is “FFLUC_HILL_SLOPE 3, FFLUC_R_SQUARED 0.28, HEPG2TOX_HILL_SLOPE 9.7, HEPG2TOX_R_SQUARED 0.823, PBLUC_HILL_SLOPE 15.6, 20.0, PBLUC_R_SQUARED 0.113, 0.608, read-out: LUCIFERASE INFECTION ASSAY - IC50”, the pIC50 was 5.04.
Consider `Clc1ccc(-c2cnc3cnc(-c4cccnc4)cn23)cc1`, for which the concentration for an effect of 90% (IC90) came out at 1.8 µM. The pIC50 (HEPG2TOX_HILL_SLOPE 2.16, HEPG2TOX_R_SQUARED 0.901, PBLUC_HILL_SLOPE 2.19, PBLUC_R_SQUARED 0.923, read-out: LUCIFERASE INFECTION ASSAY - IC50) was 6.18.
On to `O=C(Nc1ccccc1)c1ccc(CN2CCN(CCOc3ccccc3)CC2)cc1`, for which the IC90 came to 1.96 µM. Also, the negative logarithm of the IC50 (pIC50) under setting [1] is 6.19.
Take `c1ccc(Cn2cc(-c3cn4c(-c5ccc6ncccc6c5)cnc4cn3)cn2)cc1`: the IC90 was greater than 8.2 µM. Further, the pIC50 under setting [1] was less than 5.09.
The like results for `COCCNC(=O)C1(C)CCCN(C(=O)c2ccc(OC)cc2OC)C1` (stereo unspecified) were, in that order, greater than 9.06 µM and less than 5.04.
With `Cc1cc(C2=NNC(=NC(C)(C)C)SC2)c(C)n1-c1ccccc1`, the IC90 was greater than 10 µM. Moreover, for the setting “FFLUC_HILL_SLOPE 3.44, FFLUC_R_SQUARED 0.101, read-out: LUCIFERASE INFECTION ASSAY - IC50”, the pIC50 was less than 5.00.
For `Nc1nccnc1C(=O)NNC(=O)c1cc2c(s1)CCCCCC2`, the concentration for an effect of 90% (IC90) turned out to be 3.7 µM. Further, the pIC50 (HEPG2TOX_HILL_SLOPE 2.95, HEPG2TOX_R_SQUARED 0.777, PBLUC_HILL_SLOPE 11, PBLUC_R_SQUARED 0.184, read-out: LUCIFERASE INFECTION ASSAY - IC50) is 5.52.
In the case of `CCCCN(C(=O)c1csc(-c2ccc(C(C)C)cc2)n1)c1c(N)n(CCC)c(=O)[nH]c1=O`, the 90% effect concentration (IC90) was greater than 10 µM. Moreover, under setting [1], the negative-log IC50 (pIC50) is less than 5.00.
For `CCN(CC)S(=O)(=O)c1cccc(C(=O)c2c(C)c(Sc3ccc(Cl)cc3)c3ccccn23)c1`, the IC90 is greater than 10 µM. For the same compound, the pIC50 (FFLUC_HILL_SLOPE 1.47, FFLUC_R_SQUARED 0.14, read-out: LUCIFERASE INFECTION ASSAY - IC50) was less than 5.00.
For the compound `CCCN(Cc1nc(=O)c2ccc(Cl)cc2[nH]1)C(=O)C1CCN(c2nc3ccccc3o2)CC1`, the 90% effect concentration (IC90) is greater than 10 µM. Further, under setting [1], the pIC50 is less than 5.00.
Consider `CS(=O)(=O)c1ccc(-c2cnc3c(NC=O)cc(-c4ccsc4)cn23)cc1`, for which the 90% effect concentration (IC90) amounted to 4.59 µM. For the same compound, for the setting “PBLUC_HILL_SLOPE 3.07, PBLUC_R_SQUARED 0.32, read-out: LUCIFERASE INFECTION ASSAY - IC50”, the pIC50 is 5.65.
With `Cc1onc(-c2c(Cl)cccc2Cl)c1C(=O)Nc1ccccc1C(=O)NCc1c(F)cccc1Cl`, the IC90 is greater than 6.19 µM. Moreover, the pIC50 under setting [1] is less than 5.21.

For the origin of these results see ChEMBL document CHEMBL4483862, “Open-source discovery of chemical leads for next-generation chemoprotective antimalarials” (2018).
